Paper PMC11412489, “Coumarin derivatives as new anti-biofilm agents against Staphylococcus aureus” (PLOS ONE, 2024)
Where two headings read alike, the source gives them in different places.

Legend:
Assay type in all cases: cell-based, Staphylococcus aureus
S. aureus = experiment: Antibacterial activity (bacterial growth inhibition); settings: at 100 μg/mL; for inhibition at 100 µg/mL: Staphylococcus aureus, read-out: Antibacterial Activity (% Inhibition ± SEM)
[1] = system: biofilm of S. aureus ATCC 6538; experiment: 96-well plate crystal violet assay for biofilm inhibition; settings: for inhibition at 3.125 µg/mL / inhibition at 6.25 µg/mL / inhibition at 12.5 µg/mL / inhibition at 25 µg/mL / inhibition at 50 µg/mL / inhibition at 100 µg/mL: Staphylococcus aureus, ATCC6538
Procedure: The quantitative determination of biofilm inhibition was carried out by the crystal violet assay on a sterile 96-well plate with slight modifications. The glycerol stock of S. aureus was revived overnight at 37°C at 80 rpm. The overnight culture was then diluted 100 folds in fresh BHI broth, supplemented with 0.25% glucose. The cell density was adjusted to 1×10^7 and 195μL of the cell suspension was added in 96-well plate. […] Following that, the plate was washed with sterile distilled water in order to decant the non-adherent cells, and media. The plate was then dried at 60°C for 1 hour, and 200 μL of 0.1% (w/v) crystal violet was added to stain biofilm for 20 minutes. The plate was washed again, air dried, and dispensed 30% (v/v) acetic acid in each well to dissolve the biofilm. The inhibition of biofilm formation was analyzed by measuring the absorbance at 595 nm using the microplate reader (Multiskan Sky, Thermo Scientific, USA). The percent inhibition of biofilm formation was calculated via the following formula: 100−ƛTreated−ƛBlank/ƛControl−ƛBlank×100 Whereƛ=absorbance

[2] = system: biofilm cells of the S. aureus strain (ATCC 6538); experiment: Biofilm analysis by fluorescence microscopy (SYTO-9/PI); settings: SYTO-9/PI staining, S. aureus ATCC 6538, 24 hours
Procedure: Briefly, 1×10^7 cells were loaded in 96-well plate, and treated with active compounds. Plate was sealed, and incubated for 24 hours at 37°C. Following incubation, plate was washed with sterile distilled water, and cells were stained with […] SYTO-9 and 5 μM PI, for 30 minutes in dark at room temperature. After incubation, the wells were washed again, and air dried. Images were taken, and then visualized by Nikon Eclipse TE2000, USA [23]. Propidium Iodide (PI) staining indicates membrane integrity, as it can only pass through compromised membranes of non-viable cells, giving red fluorescence. On the contrary, Syto-9 can pass through all cells despite of their membrane integrity, and binds to DNA/RNA by emitting green fluorescence.

S. aureus biofilm = experiment: Atomic force microscopy analysis of biofilm disruption; settings: compared to control S. aureus cells, 24 hours
Procedure: The size and structure of disrupted biofilm was analyzed. Briefly, a pure single colony of S. aureus was inoculated in BHI broth and grown for 18–24 hours at 37°C. Following incubation, the cells were diluted in BHI broth, and density was adjusted to 1×10^7 before loading on a sterile silicon chip placed in 24-well plate, then silicon chips were treated with active compounds. The plate was then sealed, and placed in an incubator for 24 hours at 37°C. After incubation, the treated silicon chips were washed with autoclaved distilled water thrice, air dried, and the samples were analyzed by atomic force microscope (Agilent Technologies, USA).

[3] = S. aureus ATCC 6538, replicate 1, read-out: % Inhibition 1
[4] = S. aureus ATCC 6538, replicate 2, read-out: % Inhibition 2
[5] = S. aureus ATCC 6538, replicate 3, read-out: % Inhibition 3
[6] = S. aureus ATCC 6538, read-out: Mean % Inhibition
[7] = 100 µg/mL, S. aureus ATCC 6538, replicate 1, read-out: % Inhibition 1
[8] = 100 µg/mL, S. aureus ATCC 6538, replicate 2, read-out: % Inhibition 2
[9] = 100 µg/mL, S. aureus ATCC 6538, replicate 3, read-out: % Inhibition 3
[10] = 100 µg/mL, S. aureus ATCC 6538, read-out: Mean % Inhibition
[11] = at 100 μg/mL, biofilm of S. aureus, 24 hours, read-out: Antibiofilm Activity (% Inhibition ± SEM)
[12] = at 100 μg/mL, biofilm of S. aureus, 24 hours

Structure (SMILES)	inhibition at 100 µg/mL (S. aureus)	Antibacterial Activity (% Inhibition ± SEM) (S. aureus)	inhibition at 3.125 µg/mL [1, 3]	inhibition at 3.125 µg/mL [1, 4]	inhibition at 3.125 µg/mL [1, 5]	inhibition at 3.125 µg/mL [1, 6]	inhibition at 6.25 µg/mL [1, 3]	inhibition at 6.25 µg/mL [1, 4]	inhibition at 6.25 µg/mL [1, 5]	inhibition at 6.25 µg/mL [1, 6]	inhibition at 12.5 µg/mL [1, 3]	inhibition at 12.5 µg/mL [1, 4]	inhibition at 12.5 µg/mL [1, 5]	inhibition at 12.5 µg/mL [1, 6]	inhibition at 25 µg/mL [1, 3]	inhibition at 25 µg/mL [1, 4]	inhibition at 25 µg/mL [1, 5]	inhibition at 25 µg/mL [1, 6]	inhibition at 50 µg/mL [1, 3]	inhibition at 50 µg/mL [1, 4]	also measured
C/C(=N\Nc1nc(-c2ccc(Br)cc2)cs1)c1cc2ccccc2oc1=O [Compound 10, (E)-3-(1-(2-(4-(4-Bromophenyl)thiazol-2-yl)hydrazono)ethyl)-2H-chromen-2-one]	18 ± 3.73%	low antibacterial effect	1.98%	1.44%	1.54%	1.65%	5.34%	4.99%	5.53%	5.29%	7.56%	7.29%	7.21%	7.35%	2.34%	2.21%	2.09%	2.21%	39.5%	39.8%	inhibition at 50 µg/mL [1, 5]: 39.8%; inhibition at 50 µg/mL [1, 6]: 39.7%; inhibition at 100 µg/mL [1, 7]: 69.4%; inhibition at 100 µg/mL [1, 8]: 69.5%; inhibition at 100 µg/mL [1, 9]: 68.9%; inhibition at 100 µg/mL [1, 10]: 69.3%; inhibition at 100 µg/mL [1, 11]: 69 ± 9.34%; Antibiofilm Activity (% Inhibition ± SEM) [1, 12]: high potential to inhibit the biofilms; Biofilm disruption seen by fluorescence microscopy [2]: Disruption on the surface of biofilm; Biofilm disruption seen by AFM (S. aureus biofilm): Disrupted biofilm surfaces
Cc1ccc2oc(=O)c(/C=N/Nc3nc(-c4ccc(C#N)cc4)cs3)c(Cl)c2c1 [Compound 3, (E)-4-(2-(2-((4-Chloro-6-methyl-2-oxo-2H-chromen-3-yl)methylene)hydrazinyl)thiazol-4-yl)benzonitrile]	27 ± 6.41%	low antibacterial effect	12.7%	11.7%	13.9%	12.8%	22.7%	21.1%	22.5%	22.1%	26.9%	29.2%	27.4%	27.8%	55.9%	57.8%	56.6%	56.8%	74%	76%	inhibition at 50 µg/mL [1, 5]: 77%; inhibition at 50 µg/mL [1, 6]: 75.6%; inhibition at 100 µg/mL [1, 7]: 93.2%; inhibition at 100 µg/mL [1, 8]: 90.2%; inhibition at 100 µg/mL [1, 9]: 93.1%; inhibition at 100 µg/mL [1, 10]: 92.2%; inhibition at 100 µg/mL [1, 11]: 91 ± 6.31%; Antibiofilm Activity (% Inhibition ± SEM) [1, 12]: high potential to inhibit the biofilms; Biofilm disruption seen by fluorescence microscopy [2]: mild to extensive biofilm disruption and degradation; Biofilm disruption seen by AFM (S. aureus biofilm): disrupt and degrade biofilm to varying degrees
